Assay results as given in patent US4801456A, “Growth hormone-releasing factor analogs” (International Minerals & Chemical Corp., priority 1987, dated 1989).
Square brackets hold non-standard residues; d marks the D form. Peptide text beside a SMILES is read from it. Nle = CCCC[C@H](N)C(=O)O

System: rat pituitary cells in tissue culture
Assay: Bioassay of hGRF analogs: GH release from cultured pituitary cells
Format: cell-based
Settings: for Dose Needed to Release 2.01 μg/ml of GH (ED50 value for hGRF) / Maximum GH Released / Relative Maximum Activity (% of hGRF): from curves generated by ALLFIT; for GH release at dosages comparable to native hGRF: referring to Table 1; for Potency: (ED50 of hGRF)/(Dose required to give same response as ED50 of hGRF): relative to hGRF(1-44)-NH2 = 100
Description: The assay for biological activity, which is based on the ability to stimulate release of growth hormone in rat pituitary cells in tissue culture, has been described in detail (Culler, M. D.; Kenjo, T.: Obara, N.; Arimuar, A., Stimulation of cAMP. Accumulation by Human Pancreatic GH-Releasing Factor-(1-44). Am. J. Physiol. 1984, 247 (Endocrinol.Metab.10), E609-E615.
ALLFIT, the 4-parameter logistic curve fitting program available from the Biomedical Computer Technology Information Center, Vanderbilt Medical Center, Nashville TN, was used to determine ED50 and maximal stimulated values from the data. In several instances, the amount of GH released reached a maximum value and decreased with further increasing doses of the hGRF analogs. To simplify the data analysis, these values were not used in the calculations. The calculated maximal responses, the doses of the analog required to release the amount of GH released at the ED50 of the standard (hGRF) and the potencies of the analogs relative to hGRF, are given in Table 2. Generally all novel analogs were fully active and were able to stimulate the release of growth hormone with maximal values of GH release being within 80% of the value for natural hGRF.

Row | Structure (SMILES) | GH Released (mean ± (S.E.)) (Dose 1 × 10^-6 M) | GH Released (mean ± (S.E.)) (Dose 1 × 10^-7 M) | GH Released (mean ± (S.E.)) (Dose 1 × 10^-8 M) | GH Released (mean ± (S.E.)) (Dose 1 × 10^-9 M) | GH Released (mean ± (S.E.)) (Dose 1 × 10^-10 M) | GH Released (mean ± (S.E.)) (Dose 1 × 10^-11 M) | Dose Needed to Release 2.01 μg/ml of GH (ED50 value for hGRF) [nM] | Maximum GH Released [µg/mL] | Relative Maximum Activity (% of hGRF) [%] | GH release at dosages comparable to native hGRF | Potency: (ED50 of hGRF)/(Dose required to give same response as ED50 of hGRF) [%] | Potency: (ED50 of hGRF)/(Dose required to give same response as ED50 of hGRF) (listed as [Asn^3,Asp^8,Asn^25,Nle^27 ]-hGRF(1-31)--NH2) [%] | Potency: (ED50 of hGRF)/(Dose required to give same response as ED50 of hGRF) (listed as [Asn^3,Asp^8,Nle^27 ]-hGRF(1-31)--NH2) [%] | times more potent than hGRF(1-44)--NH2 (on a molar basis) [times]
1 | CCCC[C@H](NC(=O)[C@@H](NC(=O)[C@H](CC(N)=O)NC(=O)[C@H](CCC(N)=O)NC(=O)[C@H](CC(C)C)NC(=O)[C@H](CC(C)C)NC(=O)[C@H](CCCCN)NC(=O)[C@H](CCCNC(=N)N)NC(=O)[C@H](C)NC(=O)[C@H](CO)NC(=O)[C@H](CC(C)C)NC(=O)[C@H](CCC(N)=O)NC(=O)CNC(=O)[C@H](CC(C)C)NC(=O)[C@@H](NC(=O)[C@H](CCCCN)NC(=O)[C@H](CCCNC(=N)N)NC(=O)[C@H](Cc1ccc(O)cc1)NC(=O)[C@H](CO)NC(=O)[C@H](CC(N)=O)NC(=O)[C@@H](NC(=O)[C@H](Cc1ccccc1)NC(=O)[C@@H](NC(=O)[C@H](C)NC(=O)[C@H](CC(N)=O)NC(=O)[C@H](C)NC(=O)[C@@H](N)Cc1ccc(O)cc1)[C@@H](C)CC)[C@@H](C)O)C(C)C)[C@@H](C)CC)C(=O)N[C@@H](CO)C(=O)N[C@@H](CCCNC(=N)N)C(=O)N[C@@H](CCC(N)=O)C(=O)N[C@@H](CCC(N)=O)C(N)=O [[Asn^3,Asn^25,Nle^27], [Asn^3,Asn^25,Nle^27]-hGRF(1-31)--NH2] (H-YANAIFTNSYRKVLGQLSARKLLQNI[Nle]SRQQ-NH2) | 2.96 (0.11) μg/mL | 3.30 (0.08) μg/mL | 3.21 (0.13) μg/mL | 1.58 (0.07) μg/mL | 0.81 (0.06) μg/mL | 0.65 (0.03) μg/mL | 1.54 | 3.33 | 101 | induced GH release in dosages comparable to those for native hGRF | 21 | – | – | –
2 | CCCC[C@H](NC(=O)[C@@H](NC(=O)[C@H](CC(N)=O)NC(=O)[C@H](CCC(N)=O)NC(=O)[C@H](CC(C)C)NC(=O)[C@H](CC(C)C)NC(=O)[C@H](CCCCN)NC(=O)[C@H](CCCNC(=N)N)NC(=O)[C@H](C)NC(=O)[C@H](CO)NC(=O)[C@H](CC(C)C)NC(=O)[C@H](CCC(N)=O)NC(=O)CNC(=O)[C@H](CC(C)C)NC(=O)[C@@H](NC(=O)[C@H](CCCCN)NC(=O)[C@H](CCCNC(=N)N)NC(=O)[C@H](Cc1ccc(O)cc1)NC(=O)[C@H](CO)NC(=O)[C@H](CC(=O)O)NC(=O)[C@@H](NC(=O)[C@H](Cc1ccccc1)NC(=O)[C@@H](NC(=O)[C@H](C)NC(=O)[C@H](CC(N)=O)NC(=O)[C@H](C)NC(=O)[C@@H](N)Cc1ccc(O)cc1)[C@@H](C)CC)[C@@H](C)O)C(C)C)[C@@H](C)CC)C(=O)N[C@@H](CO)C(=O)N[C@@H](CCCNC(=N)N)C(=O)N[C@@H](CCC(N)=O)C(=O)N[C@@H](CCC(N)=O)C(N)=O [[Asn^3,Asp^8,Asn^25,Nle^27], [Asn^3,Asp^8,Asn^25,Nle^27]-hGRF(1-31)--NH2] (H-YANAIFTDSYRKVLGQLSARKLLQNI[Nle]SRQQ-NH2) | 3.12 (0.12) μg/mL | 2.94 (0.11) μg/mL | 1.88 (0.07) μg/mL | 0.75 (0.01) μg/mL | 0.61 (0.05) μg/mL | 0.60 (0.02) μg/mL | 12.05 | 3.11 | 94 | did not induce GH release at dosages comparable to native hGRF | 3 | 5 | – | –
3 | CCCC[C@H](NC(=O)[C@@H](NC(=O)[C@H](CC(=O)O)NC(=O)[C@H](CCC(N)=O)NC(=O)[C@H](CC(C)C)NC(=O)[C@H](CC(C)C)NC(=O)[C@H](CCCCN)NC(=O)[C@H](CCCNC(=N)N)NC(=O)[C@H](C)NC(=O)[C@H](CO)NC(=O)[C@H](CC(C)C)NC(=O)[C@H](CCC(N)=O)NC(=O)CNC(=O)[C@H](CC(C)C)NC(=O)[C@@H](NC(=O)[C@H](CCCCN)NC(=O)[C@H](CCCNC(=N)N)NC(=O)[C@H](Cc1ccc(O)cc1)NC(=O)[C@H](CO)NC(=O)[C@H](CC(=O)O)NC(=O)[C@@H](NC(=O)[C@H](Cc1ccccc1)NC(=O)[C@@H](NC(=O)[C@H](C)NC(=O)[C@H](CC(N)=O)NC(=O)[C@H](C)NC(=O)[C@@H](N)Cc1ccc(O)cc1)[C@@H](C)CC)[C@@H](C)O)C(C)C)[C@@H](C)CC)C(=O)N[C@@H](CO)C(=O)N[C@@H](CCCNC(=N)N)C(=O)N[C@@H](CCC(N)=O)C(=O)N[C@@H](CCC(N)=O)C(N)=O [[Asn^3,Asp^8,Nle^27], [Asn^3,Asp^8,Nle^27]-hGRF(1-31)--NH2] (H-YANAIFTDSYRKVLGQLSARKLLQDI[Nle]SRQQ-NH2) | 2.74 (0.19) μg/mL | 3.30 (0.27) μg/mL | 2.27 (0.07) μg/mL | 1.04 (0.05) μg/mL | 0.58 (0.04) μg/mL | 0.65 (0.04) μg/mL | 6.74 | 3.53 | 107 | did not induce GH release at dosages comparable to native hGRF | 5 | – | 3 | –
4 | CCCC[C@H](NC(=O)[C@@H](NC(=O)[C@H](CC(=O)O)NC(=O)[C@H](CCC(N)=O)NC(=O)[C@H](CC(C)C)NC(=O)[C@H](CC(C)C)NC(=O)[C@H](CCCCN)NC(=O)[C@H](CCCNC(=N)N)NC(=O)[C@H](C)NC(=O)[C@H](CO)NC(=O)[C@H](CC(C)C)NC(=O)[C@H](CCC(N)=O)NC(=O)CNC(=O)[C@H](CC(C)C)NC(=O)[C@@H](NC(=O)[C@H](CCCCN)NC(=O)[C@H](CCCNC(=N)N)NC(=O)[C@H](Cc1ccc(O)cc1)NC(=O)[C@H](CO)NC(=O)[C@H](CC(N)=O)NC(=O)[C@@H](NC(=O)[C@H](Cc1ccccc1)NC(=O)[C@@H](NC(=O)[C@H](C)NC(=O)[C@H](CC(N)=O)NC(=O)[C@H](C)NC(=O)[C@@H](N)Cc1ccc(O)cc1)[C@@H](C)CC)[C@@H](C)O)C(C)C)[C@@H](C)CC)C(=O)N[C@@H](CO)C(=O)N[C@@H](CCCNC(=N)N)C(=O)N[C@@H](CCC(N)=O)C(=O)N[C@@H](CCC(N)=O)C(N)=O [[Asn^3,Nle^27], [Asn^3, Nle^27]-hGRF(1-31)--NH2] (H-YANAIFTNSYRKVLGQLSARKLLQDI[Nle]SRQQ-NH2) | 3.22 (0.16) μg/mL | 3.05 (0.09) μg/mL | 2.90 (0.12) μg/mL | 2.40 (0.06) μg/mL | 0.97 (0.01) μg/mL | 0.67 (0.08) μg/mL | 0.58 | 3.09 | 93 | induced GH release in dosages comparable to those for native hGRF | 55 | – | – | –
5 | CCCC[C@H](NC(=O)[C@@H](NC(=O)[C@H](CC(N)=O)NC(=O)[C@H](CCC(N)=O)NC(=O)[C@H](CC(C)C)NC(=O)[C@H](CC(C)C)NC(=O)[C@H](CCCCN)NC(=O)[C@H](CCCNC(=N)N)NC(=O)[C@H](C)NC(=O)[C@H](CO)NC(=O)[C@H](CC(C)C)NC(=O)[C@H](CCC(N)=O)NC(=O)CNC(=O)[C@H](CC(C)C)NC(=O)[C@@H](NC(=O)[C@H](CCCCN)NC(=O)[C@H](CCCNC(=N)N)NC(=O)[C@H](Cc1ccc(O)cc1)NC(=O)[C@H](CO)NC(=O)[C@H](CC(N)=O)NC(=O)[C@@H](NC(=O)[C@H](Cc1ccccc1)NC(=O)[C@@H](NC(=O)[C@H](C)NC(=O)[C@H](CC(=O)O)NC(=O)[C@H](C)NC(=O)[C@@H](N)Cc1ccc(O)cc1)[C@@H](C)CC)[C@@H](C)O)C(C)C)[C@@H](C)CC)C(=O)N[C@@H](CO)C(=O)N[C@@H](CCCNC(=N)N)C(=O)N[C@@H](CCC(N)=O)C(=O)N[C@@H](CCC(N)=O)C(N)=O [[Asn^25,Nle^27], [Asn^25,Nle^27]-hGRF(1-31)--NH2] (H-YADAIFTNSYRKVLGQLSARKLLQNI[Nle]SRQQ-NH2) | 3.22 (0.24) μg/mL | 3.22 (0.09) μg/mL | 3.10 (0.12) μg/mL | 3.12 (0.15) μg/mL | 1.84 (0.06) μg/mL | 0.72 (0.05) μg/mL | 0.12 | 3.18 | 96 | induced GH release in dosages comparable to those for native hGRF | 267 | – | – | 2.7
